Test results reported in PubChem BioAssay AID1996.
Values after ≈ are worked out from the molar mass of the structure shown.

Conditions: buffer; pH 7.4; 200.0 µM

Row | Structure (SMILES) | solubility kinetic [µg/mL]
1 | CC1CCN(C(=O)COC(=O)/C=C/c2ccc([N+](=O)[O-])cc2)CC1 | 5.7 (≈ 17.2 µM)
2 | COC(=O)CNC(=O)COC(=O)/C=C/c1ccc(F)cc1 | > 44.3
3 | O=c1oc(/C=C/c2ccc([N+](=O)[O-])s2)nc2ccccc12 | 0.5 (≈ 1.67 µM)
4 | Cc1ccc(CNC(=O)[C@@H](NC(=O)Cc2ccccc2)C(C)C)cc1 | 7.4 (≈ 21.9 µM)
5 | COc1cc(CNc2ccc(N3CCCC3)cc2)cc(Cl)c1OC | 9.7 (≈ 28 µM)
6 | N#C/C(=C\c1ccccc1)C(=O)NCc1ccc(F)cc1 | 5.3 (≈ 18.9 µM)
7 | COc1ccc(NC(=O)c2ccc(C)cc2)cc1 | 5.4 (≈ 22.4 µM)
8 | O=S1(=O)CC2NC(=S)N(c3cccc(Br)c3)C2C1 (configuration not stated) | > 52.1
9 | Cc1ccc2nc(C)cc(C(=O)Nc3nccs3)c2c1 | 19.3 (≈ 68.1 µM)
10 | COc1cccc(/C=C/C(=O)OCC(=O)NCc2ccc3c(c2)OCO3)c1 | 3.3 (≈ 8.93 µM)
11 | Cn1c(=O)[nH]c(=O)c2cc(C(=O)c3cc(F)ccc3O)cnc21 | 8 (≈ 25.4 µM)
12 | Cc1ccc(NC(=S)N2CCCC2)cc1Cl | 12.5 (≈ 49.1 µM)
13 | CN(C)/C=C/C(=O)c1cnc(-c2ccccn2)s1 | > 38.9
14 | COc1ccc(Cl)cc1NC(=O)CCN1CCOCC1 | > 44.8
15 | CC1CCCCC1NC(=O)Cn1cc([N+](=O)[O-])ccc1=O (configuration not stated) | 29.1 (≈ 99.2 µM)
16 | Cc1ccc(NC(=O)c2ccc(Cl)nc2)cc1S(=O)(=O)N1CCOCC1 | 12.4 (≈ 31.3 µM)
17 | NC(=O)c1nc(-c2ccccc2)c(-c2ccccc2)[nH]c1=O | > 43.7
18 | CCNC(=O)Nc1cc(OC)c(OC)cc1C(=O)O | > 40.2
19 | COc1ccc(S(=O)(=O)N2CCCc3ccccc32)cc1[N+](=O)[O-] | 9.7 (≈ 27.8 µM)
20 | Cc1ccc(Nc2nc(N)c([N+](=O)[O-])c(NCCO)n2)cc1 | 18.7 (≈ 61.5 µM)
21 | Cc1cc(C)c(C(=O)N(C)C2CCCN(Cc3ccccc3F)C2)o1 (configuration not stated) | > 51.7
22 | Cc1ccnc(NS(=O)(=O)c2ccc(NC(=O)c3oc4ccc(F)cc4c3C)cc2)n1 | 1.6 (≈ 3.63 µM)
23 | O=C(NCc1ccco1)/C(=C/c1ccccc1)NC(=O)c1ccco1 | 42.4 (≈ 126 µM)
24 | Cc1ccc(S(=O)(=O)c2c[nH]c3cc4c(cc3c2=O)OCO4)cc1 | 2 (≈ 5.82 µM)

Row | Structure (SMILES) | solubility kinetic [µg/mL]
25 | S=C(Nc1ccc2c(c1)OCCO2)Nc1ccc2c(c1)OCO2 | > 49.6
26 | Cc1onc(-c2c(Cl)cccc2Cl)c1C(=O)N1CCCCC1 | > 50.9
27 | Cc1nc(NC(=O)c2cccnc2Cl)sc1C | > 40.2
28 | COS(=O)(=O)[O-].Cn1c(-c2ccc3ccccc3n2)[n+](C)c2ccccc21 | > 57.8
29 | O=C(c1cccc([N+](=O)[O-])c1)N1CCN(Cc2ccccc2)CC1 | > 48.8
30 | CC(C)NC(=O)COc1ccccc1C#N | > 32.7
31 | COc1ccc(-c2nc3c(s2)CN(S(C)(=O)=O)CC3)cc1OC | 10.6 (≈ 29.9 µM)
32 | CN(Cc1nc2ccccc2c(=O)[nH]1)C(=O)c1cccc(NC(=O)c2cccs2)c1 | > 62.8
33 | CCC(C(=O)NCc1ccccc1OC)c1ccccc1 (configuration not stated) | 32.6 (≈ 115 µM)
34 | Cc1cc(=O)oc2cc(NC(=O)c3ccccc3Cl)ccc12 | 8 (≈ 25.5 µM)
35 | O=C(OCc1c(F)cccc1Cl)c1cccnc1Cl | 5.1 (≈ 17 µM)
36 | Cc1sc2ncnc(SCc3ccc(C(=O)O)cc3)c2c1C | > 49.6
37 | Cc1ccnc(SCC(N)=O)n1 | > 27.5
38 | O=C1CN(/N=C/c2ccc([N+](=O)[O-])o2)C(=O)N1 | > 35.7
39 | O=C(c1cc2ccccc2s1)N1CCN(c2ccccn2)CC1 | 8.9 (≈ 27.5 µM)
40 | COCCCNC(=O)c1ccc(-c2nc3ccccc3nc2-c2ccccc2)cc1 | 32.4 (≈ 81.5 µM)
41 | O=C(c1ccc(Cl)cc1)N1CCN(c2cccc3[nH]ccc23)CC1 | 35.6 (≈ 105 µM)
42 | CC1(C)CSC(=NCCc2ccccc2)N1 | > 35.2
43 | Cc1onc(-c2ccccc2)c1NC(=O)N(Cc1ccccc1)C(C)C | 22.7 (≈ 65 µM)
44 | Cc1ccc(C(=O)N2CCN(C34CC5CC(CC(C5)C3)C4)CC2)o1 | > 49.3
45 | O=C(O)C(=O)O.O=[N+]([O-])c1ccccc1CNC1CCCCCC1 | > 50.8
46 | O=C1CCc2cc(S(=O)(=O)Nc3ccccc3)cc3c2N1CC3 | > 49.3
47 | COc1ccc(C(C#N)c2nc3ccccc3nc2Cl)cc1 (configuration not stated) | < 0.2
48 | COCCNC(=O)C(=O)c1c(-c2ccccc2)[nH]c2ccccc12 | > 48.4

Row | Structure (SMILES) | solubility kinetic [µg/mL]
49 | CCOC(=O)CN1C(=O)S/C(=C/c2ccc(C)o2)C1=O | 29.2 (≈ 98.9 µM)
50 | Cl.Fc1ccc(CN2C3=NCCN3c3ccccc32)cc1 | 43.2
51 | COc1ccc(C(C)=NNc2ccc([N+](=O)[O-])cc2S(=O)(=O)Nc2ccccc2C(=O)O)c(OC)c1 | > 77.2
52 | COc1ccccc1C(=O)COC(=O)c1ccc(N(C)C)cc1 | 1.1 (≈ 3.51 µM)
53 | CCOc1ccc(S(=O)(=O)NCCC(=O)NC2CCC(C)CC2)cc1 (configuration not stated) | 37.7 (≈ 102 µM)
54 | CC(C)(C)NC(=O)COC(=O)c1ccccc1C(=O)c1ccccc1 | 43.4 (≈ 128 µM)
55 | Cn1c(=O)c2c(nc(Oc3ccccc3Cl)n2C)n(C)c1=O | 16 (≈ 49.9 µM)
56 | CSc1nc(-c2ccc(Cl)cc2)nc(N)c1C#N | < 0.1
57 | COc1ccccc1N1C(=O)CSC1=NC(=O)c1ccccc1 | 3 (≈ 9.19 µM)
58 | COc1ccc(OC)c(-c2csc(-c3cccs3)n2)c1 | < 0.6
59 | O=C1COc2ccccc2N1Cc1c(F)cccc1Cl | 20 (≈ 68.6 µM)
60 | CCc1nc2ccccc2c(C(=O)OCC(=O)N(C)Cc2ccccc2)c1C | 4.9 (≈ 13 µM)
61 | CC(C)CCC(CCN1CCCC1)c1ccc2c(c1)OCO2.O=C(O)C(=O)O (configuration not stated) | 48.4
62 | S=C(NCC1CCCO1)NC1CCCCC1 (configuration not stated) | > 36.4
63 | CC(C)(C)NC(=O)C(=O)NNC(=O)c1cccc([N+](=O)[O-])c1 | > 46.2
64 | CCCOc1ccc(N2C(=O)C/C(=C\c3ccccc3)C2=O)cc1 | < 0.7
65 | Cc1ccc(OCC(=O)NC2CCS(=O)(=O)C2)c(C)c1 (configuration not stated) | > 44.6
66 | Nc1nc2c(ncn2C2C[C@H](O)[C@@H](CO)O2)c(=O)[nH]1 (some centres not stated) | > 40.1
67 | O=C(CCCOc1ccccc1)NCCc1nc2ccccc2[nH]1 | > 48.5
68 | CC(C)CN1C2CCCC1CC(NC(=S)NCc1ccco1)C2 (configuration not stated) | > 50.3
69 | COc1ccccc1CN1CCN(S(=O)(=O)c2ccc(C)cc2)CC1 | 1 (≈ 2.77 µM)
70 | Cc1ccc2c(c1)c(-c1csc(N)n1)c(C)n2C | 13.4 (≈ 52.1 µM)
71 | CC1(C)C(=S)N(Cc2ccccc2)c2ccccc21 | < 0.6
72 | CN(CC#CC(O)(c1ccccc1)c1ccccc1)C(C)(C)C | > 46.1

Row | Structure (SMILES) | solubility kinetic [µg/mL]
73 | Fc1ccc(-c2onc3ccc(C4OCCO4)cc23)cc1 | < 0.6
74 | CCCC1NC(=S)NC(C)=C1C(C)=O (configuration not stated) | > 31.8
75 | O=C(OCC(=O)N1CCCCC1)c1cc(S(=O)(=O)N2CCOCC2)c(Cl)cc1Cl | 67.7 (≈ 145 µM)
76 | Cl.Nc1ccn([C@H]2C[C@H](O)[C@@H](CO)O2)c(=O)n1 | > 39.6
77 | CCCCCN1C=CC=C/C1=C\C=C(C#N)C#N | 6.9 (≈ 28.8 µM)
78 | CCCCOc1ccc(C(=O)NCCOc2cccc(OC)c2)cc1 | 4 (≈ 11.6 µM)
79 | CN1CCN(CCCNc2c(C=O)c(=O)[nH]c3ccccc23)CC1 | 34.1 (≈ 104 µM)
80 | Cc1cc(C)c2[nH]c(C)c(CN3CCCCCC3)c(=O)c2c1 | > 44.8
81 | COc1ccc(NC(=S)NC(=O)/C=C/c2ccccc2)cc1 | < 0.3
82 | CC1CC(C)CN(S(=O)(=O)c2ccc3c(c2)CC(=O)N3)C1 (configuration not stated) | 9.4 (≈ 30.5 µM)
83 | CCOc1cc(C=O)ccc1OCC(N)=O | > 33.5
84 | CCCc1cnc(N2CCN(C(=O)c3ccc(OC)cc3)CC2)nc1 | 20.5 (≈ 60.2 µM)
85 | Cc1ccc(NC(=S)NC(C)(C)C)c([N+](=O)[O-])c1 | 8.2 (≈ 30.7 µM)
86 | Cc1ccc(SCc2noc(-c3c(C)noc3C)n2)cc1 | 2.1 (≈ 6.97 µM)
87 | CN(C)CCNC(=O)C(c1ccccc1)c1ccccc1 | 37.9 (≈ 134 µM)
88 | O=C1C=C(NCCOC23CC4CC(CC(C4)C2)C3)C2(CCCCC2)O1 | 4 (≈ 11.6 µM)
89 | CCOC(=O)c1[nH]c(=O)[nH]c1CNc1ccccc1C#N | > 42.9
90 | Cc1cc(C)c(OCCCCCn2ccnc2)c(C)c1 | > 40.9
91 | COc1ccc(CN2C(=O)CSCC2=O)cc1OC | > 42.2
92 | CC1CCCC(C)N1C(=O)COC(=O)c1cc(F)c(F)cc1Cl (configuration not stated) | > 51.9
93 | CCN(CC)C(=O)c1c(C)[nH]c(=S)c(C#N)c1-c1ccco1 | > 47.3
94 | CCOC(=O)c1cc(C(=O)NC(C)c2ccccc2)c(=O)[nH]c1C (configuration not stated) | 1.6 (≈ 4.87 µM)
95 | COc1cc(NC(=O)c2ccc(OCc3c(C)noc3C)c(OC)c2)cc(OC)c1 | 5.4 (≈ 13.1 µM)
96 | O=C(c1ccc(CNS(=O)(=O)c2cccc(Cl)c2)cc1)N1CCCCC1 | 2.6 (≈ 6.62 µM)

Row | Structure (SMILES) | solubility kinetic [µg/mL]
97 | O=C(NCCNC(=O)c1ccco1)c1ccc(Cl)c(Cl)c1 | 44.7 (≈ 137 µM)
98 | O=C(c1ccccc1F)N1CCN(C(=O)C2CC2)CC1 | > 41.4
99 | O=C(NC1CCCCC1)C1CC(=O)N(Cc2ccccc2)C1 (configuration not stated) | > 45.1
100 | Cc1ccccc1NC(=S)NC(=O)COc1ccccc1C | 1.1 (≈ 3.5 µM)
101 | Cc1ccc(NC(=O)CNC(=O)c2cccc(C)c2)nc1 | > 42.5
102 | COc1ccc(CCC(=O)NCc2cccc(C(F)(F)F)c2)cc1 | 10.3 (≈ 30.5 µM)
103 | O=C(NC(=S)Nc1ccccc1Br)C1CCCC1 | 2.7 (≈ 8.25 µM)
104 | O=C(N1CCN(S(=O)(=O)c2ccc(Cl)cc2)CC1)n1ccnc1 | 52.8 (≈ 149 µM)
105 | CCOc1ccc2nc(NC(=O)c3ccco3)sc2c1 | 6.9 (≈ 23.9 µM)
106 | O=C(NCc1ccc(F)cc1F)Nc1cnccc1C(F)(F)F | > 49.7
107 | CCOC(=O)c1cc2cc([N+](=O)[O-])ccc2oc1=O | 18.9 (≈ 71.8 µM)
108 | CN1CCN(c2ccc(C(F)(F)F)cc2NC(=O)c2ccco2)CC1 | > 53
109 | Nc1nccc(-c2ccc(-n3cccc3)cc2)n1 | < 0.1
110 | O=[N+]([O-])c1cc(F)c(N2CCCCC2)cc1Br | 0.3 (≈ 0.99 µM)
111 | Cc1cnc(C(=O)OCC(=O)c2ccc[nH]2)cn1 | > 36.8
112 | Cc1ccc2cc(NC(=O)c3ccccc3C)ccc2n1 | 37.4 (≈ 135 µM)
113 | N#Cc1c(Nc2ccccc2)s[nH]c1=O | > 32.6
114 | CC(C)CN1C(=O)C(=Nc2cccnc2)c2ccccc21 | > 41.9
115 | CSc1ccc(Cl)c(C(=O)N2CCN(CC(=O)N3CCCC3)CC2)c1 | > 57.3
116 | O=[N+]([O-])c1ccccc1/C=N/OCc1ccccc1 | 2.6 (≈ 10.1 µM)
117 | O=C(CNCc1ccc(Cl)cc1)N1CCc2ccccc2C1 | 36.8 (≈ 117 µM)
